Laboratory results: ChEMBL document CHEMBL3045122, “Synthesis, in vitro antimicrobial, antiproliferative, and QSAR studies of N-(substituted phenyl)-2/4-(1H-indol-3-ylazo)-benzamides” (Med Chem Res, 2013)

What was measured:
Bacillus subtilis [1] = experiment: Ratio of MBC to MIC for Bacillus subtilis; type: functional
P388 = experiment: Cytotoxicity against Mus musculus (mouse) P388 cells assessed as growth inhibition after 72 hr by MTT assay; type: functional, cell-based
MCF7 = experiment: Cytotoxicity against Homo sapiens (human) MCF7 cells assessed as growth inhibition after 72 hr by MTT assay; type: functional, cell-based
Staphylococcus aureus [2] = experiment: Ratio of MBC to MIC for Staphylococcus aureus; type: functional
Escherichia coli [3] = experiment: Antibacterial activity against Escherichia coli assessed as growth inhibition after 24 hr by tube dilution method; type: functional
Escherichia coli [4] = experiment: Ratio of MBC to MIC for Escherichia coli; type: functional
Aspergillus niger [5] = experiment: Fungicidal activity against Aspergillus niger; type: functional
Candida albicans [6] = experiment: Fungicidal activity against Candida albicans; type: functional
Bacillus subtilis [7] = experiment: Bactericidal activity against Bacillus subtilis; type: functional
HCT-116 = experiment: Cytotoxicity against Homo sapiens (human) HCT116 cells assessed as growth inhibition after 72 hr by MTT assay; type: functional, cell-based
Aspergillus niger [8] = experiment: Antifungal activity against Aspergillus niger assessed as growth inhibition after 7 days by tube dilution method; type: functional
Staphylococcus aureus [9] = experiment: Antibacterial activity against Staphylococcus aureus assessed as growth inhibition after 24 hr by tube dilution method; type: functional
Candida albicans [10] = experiment: Antifungal activity against Candida albicans assessed as growth inhibition after 48 hr by tube dilution method; type: functional
Aspergillus niger [11] = experiment: Ratio of MFC to MIC for Aspergillus niger; type: functional
Candida albicans [12] = experiment: Ratio of MFC to MIC for Candida albicans; type: functional
Bacillus subtilis [13] = experiment: Antibacterial activity against Bacillus subtilis assessed as growth inhibition after 24 hr by tube dilution method; type: functional
Escherichia coli [14] = experiment: Bactericidal activity against Escherichia coli; type: functional
Staphylococcus aureus [15] = experiment: Bactericidal activity against Staphylococcus aureus; type: functional

SMILES	Ratio (Bacillus subtilis [1])	IC50 (P388) [uM/ml]	IC50 (MCF7) [uM/ml]	Ratio (Staphylococcus aureus [2])	-logMIC (Escherichia coli [3])	Ratio (Escherichia coli [4])	MFC (Aspergillus niger [5]) [uM/ml]	MFC (Candida albicans [6]) [uM/ml]	MBC (Bacillus subtilis [7]) [uM/ml]	IC50 (HCT-116) [uM/ml]	-logMIC (Aspergillus niger [8])	-logMIC (Staphylococcus aureus [9])	-logMIC (Candida albicans [10])	Ratio (Aspergillus niger [11])	Ratio (Candida albicans [12])	-logMIC (Bacillus subtilis [13])	MBC (Escherichia coli [14]) [uM/ml]	MBC (Staphylococcus aureus [15]) [uM/ml]
Cc1ccc(NC(=O)c2ccc(/N=N\c3c[nH]c4ccccc34)cc2)c(C)c1	3	0.1902	0.087	3	1.47	3	0.03	0.14	>0.14	0.0761	1.47	1.47	1.47	3	3	1.47	>0.14	>0.14
OC(Cn1cncn1)(Cn1cncn1)c1ccc(F)cc1F [FLUCONAZOLE]							0.04	0.04			2.64		2.64	3	3			
Cc1ccc(NC(=O)c2ccccc2/N=N\c2c[nH]c3ccccc23)c(C)c1	3		0.1087	3	1.47	3	0.03	>0.14	>0.14	0.0815	1.47	1.17	1.47	3	3	1.47	>0.14	>0.14
Cc1cccc(NC(=O)c2ccccc2/N=N\c2c[nH]c3ccccc23)c1	3		0.1271	3	1.75	3	0.04	>0.14	>0.14	0.1695	1.45	1.45	1.45	3	3	1.75	>0.14	>0.14
O=C(Nc1cccc([N+](=O)[O-])c1)c1ccc(/N=N\c2c[nH]c3ccccc23)cc1	3	0.0519	0.0519	3	1.49	3	0.03	0.06	>0.13	0.0701	1.49	1.19	1.49	3	3	1.79	>0.13	>0.13
Cc1cccc(NC(=O)c2ccccc2/N=N\c2c[nH]c3ccccc23)c1C	3		0.1087	3	1.77	3	0.03	>0.14	>0.14	0.3533	1.47	1.17	1.47	3	3	1.47	>0.14	>0.14
O=C(Nc1ccccc1F)c1ccc(/N=N\c2c[nH]c3ccccc23)cc1	3	0.1061	0.0838	3	1.46	3	0.03	0.07	>0.14	0.5587	1.46	1.46	1.46	3	3	1.46	>0.14	>0.14
O=C(Nc1cccc(Cl)c1)c1ccccc1/N=N\c1c[nH]c2ccccc12	3		0.1067	3	1.78	3	0.03	>0.13	>0.13	0.2933	1.48	1.18	1.48	3	3	1.48	>0.13	>0.13
Cc1ccccc1NC(=O)c1ccccc1/N=N\c1c[nH]c2ccccc12	3		0.1412	3	1.45	3	0.04	>0.14	>0.14	1.1299	1.45	1.15	1.45	3	3	1.45	>0.14	>0.14
O=C(Nc1ccc(Cl)cc1)c1ccccc1/N=N\c1c[nH]c2ccccc12	3		0.1067	3	1.48	3	0.03	>0.13	>0.13	0.3467	1.48	1.18	1.48	3	3	1.48	>0.13	>0.13
O=C(Nc1ccccc1Cl)c1ccccc1/N=N\c1c[nH]c2ccccc12	3		0.1067	3	1.48	3	0.03	>0.13	>0.13	0.24	1.48	1.18	1.48	3	3	1.48	>0.13	>0.13
O=C(Nc1ccccc1)c1ccccc1/N=N\c1c[nH]c2ccccc12	3		0.0882	3	1.74	3	0.04	>0.15	>0.15	0.2353	1.44	1.13	1.44	3	3	1.74	>0.15	>0.15
Cc1ccc(NC(=O)c2ccccc2/N=N\c2c[nH]c3ccccc23)cc1	3		0.0791	3	1.45	3	0.04	>0.14	>0.14	0.452	1.45	1.15	1.45	3	3	1.45	>0.14	>0.14
O=C(Nc1ccccc1F)c1ccccc1/N=N\c1c[nH]c2ccccc12	3		0.1397	3	1.76	3	0.03	>0.14	>0.14	0.2235	1.46	1.16	1.46	3	3	1.46	>0.14	>0.14
CCn1cc(C(=O)O)c(=O)c2cc(F)c(N3CCNCC3)cc21 [NORFLOXACIN]	3			3	2.61	3			0.019			2.61				2.61	0.019	0.019
Cc1ccc(C)c(NC(=O)c2ccccc2/N=N\c2c[nH]c3ccccc23)c1	3		0.1087	3	1.47	3	0.03	>0.14	>0.14	0.163	1.47	1.17	1.47	3	3	1.77	>0.14	>0.14
O=c1[nH]cc(F)c(=O)[nH]1 [FLUOROURACIL]		0.0219	0.0052							0.0462								
